# Source: article PMC8213057, “Targeting ALK2: An Open Science Approach to Developing Therapeutics for the Treatment of Diffuse Intrinsic Pontine Glioma” (Journal of Medicinal Chemistry, 2020)
# Where “and” joins values, the source holds several entries; their conditions need not be identical. Equal values may be shown once.
# Tests used:
# [1] = test system: BRAF
# [2] = biological target: T1, CYP2C9 (Homo sapiens, UniProt P11712); test: CYP inhibition assay; assay type: in vitro ADME; details: human liver microsomes
# T1 construct: tissue Corning 452117; host or cells: pooled human liver microsomes (UltraPool HLM 150, mixed gender)
# T1 sequence (P11712 whole entry): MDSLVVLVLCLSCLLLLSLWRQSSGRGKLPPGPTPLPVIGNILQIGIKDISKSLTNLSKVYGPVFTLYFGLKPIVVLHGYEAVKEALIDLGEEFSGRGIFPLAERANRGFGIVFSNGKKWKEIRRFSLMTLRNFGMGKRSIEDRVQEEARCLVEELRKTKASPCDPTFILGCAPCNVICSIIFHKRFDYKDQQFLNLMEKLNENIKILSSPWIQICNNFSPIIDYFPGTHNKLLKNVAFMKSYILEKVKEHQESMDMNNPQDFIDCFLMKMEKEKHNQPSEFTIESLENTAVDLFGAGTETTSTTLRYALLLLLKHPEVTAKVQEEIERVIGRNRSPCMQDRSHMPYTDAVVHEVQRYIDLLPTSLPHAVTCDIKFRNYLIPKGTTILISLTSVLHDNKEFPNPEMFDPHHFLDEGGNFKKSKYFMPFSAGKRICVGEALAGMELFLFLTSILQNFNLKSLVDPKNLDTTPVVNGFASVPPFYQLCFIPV
# [3] = biological target: T2, JAK3 (Homo sapiens, UniProt P52333); details: 1 μM; Run 1, Run 2
# T2 sequence (P52333 1-1124): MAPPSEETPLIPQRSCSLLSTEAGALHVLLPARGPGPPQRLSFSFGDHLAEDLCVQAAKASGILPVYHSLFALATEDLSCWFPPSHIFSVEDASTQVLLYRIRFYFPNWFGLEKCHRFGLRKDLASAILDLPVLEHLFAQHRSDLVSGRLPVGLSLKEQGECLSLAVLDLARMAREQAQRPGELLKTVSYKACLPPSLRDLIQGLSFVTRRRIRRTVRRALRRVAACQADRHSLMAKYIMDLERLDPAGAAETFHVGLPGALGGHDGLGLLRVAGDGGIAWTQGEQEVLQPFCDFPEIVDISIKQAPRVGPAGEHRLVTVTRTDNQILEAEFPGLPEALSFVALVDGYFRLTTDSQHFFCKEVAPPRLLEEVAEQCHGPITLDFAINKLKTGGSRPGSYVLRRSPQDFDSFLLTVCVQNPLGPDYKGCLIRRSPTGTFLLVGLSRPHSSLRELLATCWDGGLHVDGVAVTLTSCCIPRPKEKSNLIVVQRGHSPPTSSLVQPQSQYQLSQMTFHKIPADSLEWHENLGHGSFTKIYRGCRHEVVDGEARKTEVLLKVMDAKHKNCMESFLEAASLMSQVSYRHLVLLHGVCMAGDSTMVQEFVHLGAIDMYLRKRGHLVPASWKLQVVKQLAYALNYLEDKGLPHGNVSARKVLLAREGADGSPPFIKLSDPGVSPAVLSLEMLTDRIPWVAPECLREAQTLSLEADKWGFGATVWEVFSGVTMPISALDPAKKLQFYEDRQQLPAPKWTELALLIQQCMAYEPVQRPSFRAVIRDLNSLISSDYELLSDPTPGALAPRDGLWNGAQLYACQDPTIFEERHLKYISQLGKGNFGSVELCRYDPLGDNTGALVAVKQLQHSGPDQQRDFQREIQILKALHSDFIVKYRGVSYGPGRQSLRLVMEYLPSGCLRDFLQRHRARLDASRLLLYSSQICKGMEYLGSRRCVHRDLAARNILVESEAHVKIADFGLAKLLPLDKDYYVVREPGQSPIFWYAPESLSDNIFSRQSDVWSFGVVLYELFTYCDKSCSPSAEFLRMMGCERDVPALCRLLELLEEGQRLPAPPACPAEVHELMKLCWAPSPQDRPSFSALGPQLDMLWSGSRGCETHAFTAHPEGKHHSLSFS
# [4] = biological target: PKCg (Homo sapiens, UniProt P05129); details: 1 μM; Run 1, Run 2
# [5] = biological target: PKN3/PRK3 (Homo sapiens, UniProt Q6P5Z2); details: 1 μM; Run 1, Run 2
# Chain of PKN3/PRK3 (Q6P5Z2 whole entry): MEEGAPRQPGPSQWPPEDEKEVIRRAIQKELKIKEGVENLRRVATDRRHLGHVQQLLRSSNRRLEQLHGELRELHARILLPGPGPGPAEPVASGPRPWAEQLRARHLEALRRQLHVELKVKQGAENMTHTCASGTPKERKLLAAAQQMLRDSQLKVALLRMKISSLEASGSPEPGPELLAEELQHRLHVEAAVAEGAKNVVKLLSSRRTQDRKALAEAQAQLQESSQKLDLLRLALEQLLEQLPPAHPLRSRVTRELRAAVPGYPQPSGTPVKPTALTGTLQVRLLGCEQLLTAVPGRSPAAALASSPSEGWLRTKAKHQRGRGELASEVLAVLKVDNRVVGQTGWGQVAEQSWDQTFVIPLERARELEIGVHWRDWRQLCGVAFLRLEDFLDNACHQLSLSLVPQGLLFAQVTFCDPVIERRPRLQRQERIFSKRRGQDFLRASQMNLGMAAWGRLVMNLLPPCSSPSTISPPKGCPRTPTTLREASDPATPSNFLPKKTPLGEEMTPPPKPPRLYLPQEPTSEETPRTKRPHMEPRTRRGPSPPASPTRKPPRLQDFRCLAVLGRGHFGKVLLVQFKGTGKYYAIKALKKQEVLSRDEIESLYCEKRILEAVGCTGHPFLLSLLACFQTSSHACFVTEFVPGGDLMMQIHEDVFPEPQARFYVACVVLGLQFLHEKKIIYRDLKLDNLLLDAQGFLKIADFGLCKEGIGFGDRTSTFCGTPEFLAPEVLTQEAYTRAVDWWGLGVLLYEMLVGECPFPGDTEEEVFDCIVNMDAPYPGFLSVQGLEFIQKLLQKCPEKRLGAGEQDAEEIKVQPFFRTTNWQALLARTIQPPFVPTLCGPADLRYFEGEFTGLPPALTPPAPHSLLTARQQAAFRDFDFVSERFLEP
# [6] = biological target: T3, GRK1 (Homo sapiens, UniProt Q15835); test: biochemical; details: read-out: % enzyme activity, 1 μM; Run 1, Run 2
# T3 sequence (Q15835 1-563): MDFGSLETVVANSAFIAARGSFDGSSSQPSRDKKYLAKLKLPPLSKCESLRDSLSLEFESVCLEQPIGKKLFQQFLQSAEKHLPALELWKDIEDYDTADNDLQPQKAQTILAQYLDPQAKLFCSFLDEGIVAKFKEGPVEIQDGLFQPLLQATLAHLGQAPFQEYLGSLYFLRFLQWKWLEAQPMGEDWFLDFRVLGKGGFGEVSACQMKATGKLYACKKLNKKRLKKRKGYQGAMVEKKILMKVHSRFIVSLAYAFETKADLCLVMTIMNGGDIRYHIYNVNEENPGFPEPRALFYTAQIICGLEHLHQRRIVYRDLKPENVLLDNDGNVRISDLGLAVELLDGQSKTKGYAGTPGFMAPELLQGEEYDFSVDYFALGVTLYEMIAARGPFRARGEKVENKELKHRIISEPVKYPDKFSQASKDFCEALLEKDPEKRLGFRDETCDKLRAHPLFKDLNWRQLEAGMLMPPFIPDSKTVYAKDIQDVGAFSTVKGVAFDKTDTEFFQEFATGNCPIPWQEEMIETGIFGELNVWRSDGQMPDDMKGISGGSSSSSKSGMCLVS
# [7] = biological target: MAST3 (Homo sapiens, UniProt O60307); test: biochemical; details: read-out: % enzyme activity, 1 μM; Run 1, Run 2
# Chain of MAST3 (O60307 whole entry): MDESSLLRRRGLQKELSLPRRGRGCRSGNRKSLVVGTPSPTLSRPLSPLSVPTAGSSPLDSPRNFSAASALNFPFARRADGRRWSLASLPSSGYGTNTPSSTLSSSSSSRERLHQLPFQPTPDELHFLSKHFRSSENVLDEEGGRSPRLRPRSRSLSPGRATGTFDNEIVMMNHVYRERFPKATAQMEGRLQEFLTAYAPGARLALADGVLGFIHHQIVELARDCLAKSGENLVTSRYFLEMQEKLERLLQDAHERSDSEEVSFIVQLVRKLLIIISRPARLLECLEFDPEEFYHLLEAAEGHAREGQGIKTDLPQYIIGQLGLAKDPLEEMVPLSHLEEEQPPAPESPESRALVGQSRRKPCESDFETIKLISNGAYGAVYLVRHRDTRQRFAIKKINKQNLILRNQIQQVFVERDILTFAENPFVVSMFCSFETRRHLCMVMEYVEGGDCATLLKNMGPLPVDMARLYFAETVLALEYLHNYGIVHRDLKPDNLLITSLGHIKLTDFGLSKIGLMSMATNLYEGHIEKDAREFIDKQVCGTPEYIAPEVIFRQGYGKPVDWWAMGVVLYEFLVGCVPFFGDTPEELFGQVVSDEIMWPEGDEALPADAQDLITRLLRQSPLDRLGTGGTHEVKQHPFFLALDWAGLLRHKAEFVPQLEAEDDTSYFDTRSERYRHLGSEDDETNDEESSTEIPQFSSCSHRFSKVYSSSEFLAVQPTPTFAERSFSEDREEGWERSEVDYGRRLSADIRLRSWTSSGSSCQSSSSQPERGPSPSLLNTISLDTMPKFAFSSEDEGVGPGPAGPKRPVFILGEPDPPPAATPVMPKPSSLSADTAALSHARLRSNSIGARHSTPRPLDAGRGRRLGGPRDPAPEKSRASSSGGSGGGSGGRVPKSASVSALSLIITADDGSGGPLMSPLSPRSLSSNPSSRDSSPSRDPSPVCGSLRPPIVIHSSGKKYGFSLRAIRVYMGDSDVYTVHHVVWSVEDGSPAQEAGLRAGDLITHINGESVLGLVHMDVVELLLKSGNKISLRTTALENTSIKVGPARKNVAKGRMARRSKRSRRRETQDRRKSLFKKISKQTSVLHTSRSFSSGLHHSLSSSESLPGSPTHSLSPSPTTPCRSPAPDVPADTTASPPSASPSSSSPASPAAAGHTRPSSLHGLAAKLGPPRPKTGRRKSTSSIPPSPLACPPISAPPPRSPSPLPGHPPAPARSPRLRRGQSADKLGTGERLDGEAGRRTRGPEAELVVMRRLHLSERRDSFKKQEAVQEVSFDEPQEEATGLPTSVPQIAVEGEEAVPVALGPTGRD
# [8] = biological target: NEK6 (Homo sapiens, UniProt Q9HC98); test: biochemical; details: read-out: % enzyme activity, 1 μM; Run 1, Run 2
# Chain of NEK6 (Q9HC98 whole entry): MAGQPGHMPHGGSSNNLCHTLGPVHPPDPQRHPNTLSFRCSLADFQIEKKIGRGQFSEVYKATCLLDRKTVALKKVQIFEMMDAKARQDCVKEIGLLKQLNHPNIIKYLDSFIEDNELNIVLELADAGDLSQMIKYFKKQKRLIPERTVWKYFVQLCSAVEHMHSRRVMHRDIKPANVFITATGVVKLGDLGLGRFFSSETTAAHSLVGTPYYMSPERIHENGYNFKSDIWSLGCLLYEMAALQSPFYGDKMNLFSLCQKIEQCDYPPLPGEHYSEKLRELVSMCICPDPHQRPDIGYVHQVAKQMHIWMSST
# [9] = biological target: T4, TAOK3/JIK (Homo sapiens, UniProt Q9H2K8); test: biochemical; details: read-out: % enzyme activity, 1 μM; Run 1, Run 2
# T4 sequence (Q9H2K8 1-898): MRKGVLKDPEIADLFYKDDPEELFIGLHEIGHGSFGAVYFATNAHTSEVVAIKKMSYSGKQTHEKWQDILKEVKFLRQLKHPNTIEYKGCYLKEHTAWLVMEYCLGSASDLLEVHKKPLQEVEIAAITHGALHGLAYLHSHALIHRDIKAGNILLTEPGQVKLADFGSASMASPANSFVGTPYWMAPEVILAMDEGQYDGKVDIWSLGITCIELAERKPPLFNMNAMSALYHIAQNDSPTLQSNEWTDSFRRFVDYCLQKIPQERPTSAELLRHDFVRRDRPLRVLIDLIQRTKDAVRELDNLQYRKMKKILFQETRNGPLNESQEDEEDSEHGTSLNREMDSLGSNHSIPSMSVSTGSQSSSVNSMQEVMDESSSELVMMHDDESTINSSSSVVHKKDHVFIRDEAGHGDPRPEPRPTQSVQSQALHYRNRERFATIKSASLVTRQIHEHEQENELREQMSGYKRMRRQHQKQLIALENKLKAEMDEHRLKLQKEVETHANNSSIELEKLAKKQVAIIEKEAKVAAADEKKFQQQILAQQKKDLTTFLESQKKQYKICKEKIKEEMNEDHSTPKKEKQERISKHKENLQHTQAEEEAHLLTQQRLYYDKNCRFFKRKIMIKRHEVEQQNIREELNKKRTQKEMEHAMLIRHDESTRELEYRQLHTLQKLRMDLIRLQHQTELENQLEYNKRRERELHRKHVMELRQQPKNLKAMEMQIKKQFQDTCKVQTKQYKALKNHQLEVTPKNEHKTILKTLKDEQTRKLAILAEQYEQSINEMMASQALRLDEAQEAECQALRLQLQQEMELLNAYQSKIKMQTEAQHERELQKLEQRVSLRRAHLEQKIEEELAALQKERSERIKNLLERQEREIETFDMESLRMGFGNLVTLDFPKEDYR
SMILES,% enzyme activity at 1 μM [1],IC50 [2],% enzyme activity [3],% enzyme activity [4],% enzyme activity [5],remaining activity at 1 µM [6],remaining activity at 1 µM [7],remaining activity at 1 µM [8],remaining activity at 1 µM [9]
"COc1cc(-c2cncc(-c3ccc(N4CCN(C)CC4)cc3)c2C)cc(F)c1C(N)=O [Compound 26a, 2-Fluoro-6-methoxy-4-(4-methyl-5-(4-(4-methylpiperazin-1-yl)phenyl)pyridin-3-yl)benzamide]",28.8%,> 50 µM,102.92%,96.27%,93.55%,94%,94.7%,99.3%,69.7%
"COc1cc(-c2cncc(-c3ccc(N4C[C@@H](C)N(C)[C@@H](C)C4)cc3)c2C)cc(F)c1C(N)=O [Compound 26c, 2-Fluoro-6-methoxy-4-(4-methyl-5-(4-((3R,5S)-3,4,5-trimethylpiperazin-1-yl)phenyl)pyridin-3-yl)benzamide]",41.1% and 40.5%,> 50 µM,99.31%,96.41%,96.44%,95.3%,95.5%,104%,84.5%
